# Earlier results as cited in PMC9395488, “First-in-human study of IM156, a novel potent biguanide oxidative phosphorylation (OXPHOS) inhibitor, in patients with advanced solid tumors” (Investigational New Drugs, 2022).
# How the values were obtained:
# [1] = tested on: tumor cells; design: method as in Immunomet – Data on File; conditions: at equal concentrations, ref Immunomet – Data on File, cited from earlier work
# [2] = tested on: OXPHOS; design: method as in ImmunoMet, 2018; conditions: at the highest concentrations; ref ImmunoMet, 2018; cited from earlier work
smiles,measurement,setting,value
NC(=Nc1ccc(OC(F)(F)F)cc1)N=C(N)N1CCCC1 [IM156],reduction of cellular ATP production versus phenformin,[1]; without increase in ECAR,more potent
same,decrease of oxygen consumption rate (OCR) of tumor cells compared to phenformin and metformin,[1],more potent
same,time to show OXPHOS inhibition,[2],≤ 20 min
